By Ki is commonly meant the equilibrium dissociation constant of an inhibitor or competing ligand from its target. High values mean lower affinity, low ones higher affinity.

This test has as its target cAMP and cAMP-inhibited cGMP 3',5'-cyclic phosphodiesterase 10A (Homo sapiens, UniProt Q9Y233). The experiment in a line: Fluorescence Polarization Assay: The fluorescence polarization assay for cyclic nucleotide phosphodiesterases was performed using an IMAP® FP kit supplied by Molecular Devices, Sunnyvale, Calif. (product # R8139). IMAP® technology has been applied previously to phosphodiesterase assays (Huang, W., et al., J. Biomol Screen, 2002, 7: 215). Assays were performed at room temperature in 384-well microtiter plates with an incubation volume of 20.2 μL. Solutions of test compounds were prepared in DMSO and serially diluted with DMSO to yield 8 μL of each of 10 solutions differing by 3-fold in concentration, at 32 serial dilutions per plate. In general terms: In fluorescence polarisation assays a small probe gives low polarisation when free and higher when bound to something large.

Chain of cAMP and cAMP-inhibited cGMP 3',5'-cyclic phosphodiesterase 10A (Q9Y233 whole entry): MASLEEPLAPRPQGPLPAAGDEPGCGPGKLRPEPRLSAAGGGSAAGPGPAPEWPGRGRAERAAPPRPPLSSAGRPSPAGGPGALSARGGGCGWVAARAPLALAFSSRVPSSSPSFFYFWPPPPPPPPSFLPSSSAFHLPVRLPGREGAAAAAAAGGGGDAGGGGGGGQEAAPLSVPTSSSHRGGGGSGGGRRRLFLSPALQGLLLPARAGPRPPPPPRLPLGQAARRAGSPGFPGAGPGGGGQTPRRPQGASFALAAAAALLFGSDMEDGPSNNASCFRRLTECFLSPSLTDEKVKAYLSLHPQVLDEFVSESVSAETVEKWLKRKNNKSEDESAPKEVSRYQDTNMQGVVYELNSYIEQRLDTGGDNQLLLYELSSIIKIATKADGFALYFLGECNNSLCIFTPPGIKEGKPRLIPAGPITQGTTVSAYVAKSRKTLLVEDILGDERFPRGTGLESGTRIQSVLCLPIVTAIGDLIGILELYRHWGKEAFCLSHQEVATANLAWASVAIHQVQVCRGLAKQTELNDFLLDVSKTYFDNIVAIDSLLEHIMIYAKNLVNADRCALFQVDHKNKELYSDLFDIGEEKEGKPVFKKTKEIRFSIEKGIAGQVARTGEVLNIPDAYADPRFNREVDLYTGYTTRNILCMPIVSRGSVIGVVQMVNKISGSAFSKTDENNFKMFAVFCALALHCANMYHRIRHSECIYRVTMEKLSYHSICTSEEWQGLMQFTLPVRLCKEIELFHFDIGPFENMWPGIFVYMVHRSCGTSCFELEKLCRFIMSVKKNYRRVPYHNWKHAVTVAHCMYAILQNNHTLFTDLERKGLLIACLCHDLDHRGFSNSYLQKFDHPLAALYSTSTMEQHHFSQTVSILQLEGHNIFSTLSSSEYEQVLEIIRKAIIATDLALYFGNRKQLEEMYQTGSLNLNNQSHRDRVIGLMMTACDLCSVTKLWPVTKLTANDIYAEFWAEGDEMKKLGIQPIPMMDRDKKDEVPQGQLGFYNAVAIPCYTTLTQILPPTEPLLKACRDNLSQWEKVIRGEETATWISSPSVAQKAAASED

Consider `Cc1ccc([C@H]2C[C@@H]2COc2nc(C)ncc2-c2cccc(C(F)(F)F)c2)nc1`, for which affinity was put at a Ki of 830 pM. In other words, the sub-nanomolar range. As for `Cc1ncc(-c2cnc(C(C)(C)O)cc2C)c(OC[C@H]2C[C@@H]2c2ccc3ccccc3n2)n1`, the inhibition constant (Ki) is < 10 pM.

As for `COc1ccc([C@H]2C[C@@H]2COc2nc(C)ncc2-c2ccc(Cl)nc2)nc1`, the Ki was 1300 pM. `Cc1ccc([C@H]2C[C@@H]2COc2nc(C)ncc2-c2cncnc2)nc1` had a Ki of 2560 pM. Against the preceding compound, the Ki is about 2-fold higher.

Regarding `Cc1ncc(-c2ccc(C(C)(C)O)nc2)c(OC[C@H]2C[C@@H]2c2ccc(F)cn2)n1`, the Ki was 570 pM. This Ki lies about 4.5-fold lower than the previous one.

Source of the values: ChEMBL document CHEMBL5726258, “Pyrimidine PDE10 inhibitors” (2017).
